The source of these data is patent US20250042855A1, “PERIPHERALLY AND LUMINALLY-RESTRICTED INHIBITORS OF THE SEROTONIN TRANSPORTER AS TREATMENTS FOR DISORDERS OF GASTROINTESTINAL MOTILITY AND GUT-BRAIN AXIS” (The Johns Hopkins University, priority 2021, published 2025).

Counter-ions that a name gives are not always drawn.

For test [1], the target named is T1, serotonin transporter SERT (Homo sapiens, UniProt P31645).
T1 construct: host or cells: HEK-293
The test is described as follows: Uptake of serotonin (5-HT) in human HEK-293 cells, quantitation of [3H] serotonin. The note with it: HEK293, 0.25 h, 10 micromolar concentration, 15 minutes @ 25° C., read-out: Activity Range: antagonism of uptake of serotonin (5-HT). The class given is cell-based. Here is the method:
Uptake of serotonin (5-Hydroxytryptamine (5-HT)) in human HEK-293 cells embryonic kidney was measured according to the literature procedure by Gu H, Wall S. C. and Rudnick G. J Biol Chem. 1994 269, 7124. Using the following conditions: • Quantitation Method: Quantitation of [^3H] Serotonin • Vehicle: 0.50% DMSO • Incubation Time/Temp: 15 minutes @ 25° C. • Incubation Buffer: 5 mM Tris —HCl, 7.5 mM HEPES, pH 7.1, 120 mM NaCl, 5.4 mM KCl, • 1.2 mM CaCl2, 1.2 mM MgSO4, 5 mM DGlucose, 1 mM Ascorbic Acid
Any compound with minimum of 20% antagonism at 10 micromolar concentration as described above, is deemed a SERT inhibitor.

The subject of test [2] is gastric emptying in C57B/6 mice. The test is described as follows: Gastric emptying (phenol red) in IBS and control mice after 10 days of oral treatment. The class given is in vivo. The note with it: P<0.05; for gastric emptying: 10 mg/kg by gavage once a day for 10 days, versus vehicle. From the text: In this experiment our aim was to study the effects of N-(2-((diaminomethylene)amino)ethyl)-4-(((3S,4R)-4-(4-fluorophenyl)piperidin-3-yl)methoxy)benzamide (example 8) in healthy mice as well as those with a model of gastrointestinal dysmotility (irritable bowel syndrome). The IBS model was induced by mild neonatal colorectal irritation in C57B/6 mice; control mice received saline. Twenty μL of 0.5% acetic acid (AA) or saline were infused into the colorectum of mice during postnatal day 9-12. Pups were weaned at 3 weeks of age and allowed to grow up normally and tested after 8-12 weeks of age.
Male IBS and control mice were treated with vehicle, Example 8 (10 mg/kg) and paroxetine (10 mg/kg) by gavage (10 ml/kg) once a day for 10 days. On the day 9, mice were fasted overnight. On the day 10, mice were treated with drugs followed by gavage with 0.3 ml of 0.05% phenol red in methylcellulose solution. Fifteen minutes later, mice were sacrificed and the stomach was removed after ligating the cardia and pylorus with hemostats. One mouse was sacrificed immediately after gavage of phenol red (0 time) used as control. The stomachs were homogenized and phenol red were extracted. After measuring the density of phenol red, the gastric empty was calculated as
The data were analyzed by Two-WAY ANOVA followed by Student-Newman-Keuls post-hoc test.

Where [3] appears, read: IBS mice (neonatal acetic acid colorectal irritation).

T1 sequence (P31645 whole entry): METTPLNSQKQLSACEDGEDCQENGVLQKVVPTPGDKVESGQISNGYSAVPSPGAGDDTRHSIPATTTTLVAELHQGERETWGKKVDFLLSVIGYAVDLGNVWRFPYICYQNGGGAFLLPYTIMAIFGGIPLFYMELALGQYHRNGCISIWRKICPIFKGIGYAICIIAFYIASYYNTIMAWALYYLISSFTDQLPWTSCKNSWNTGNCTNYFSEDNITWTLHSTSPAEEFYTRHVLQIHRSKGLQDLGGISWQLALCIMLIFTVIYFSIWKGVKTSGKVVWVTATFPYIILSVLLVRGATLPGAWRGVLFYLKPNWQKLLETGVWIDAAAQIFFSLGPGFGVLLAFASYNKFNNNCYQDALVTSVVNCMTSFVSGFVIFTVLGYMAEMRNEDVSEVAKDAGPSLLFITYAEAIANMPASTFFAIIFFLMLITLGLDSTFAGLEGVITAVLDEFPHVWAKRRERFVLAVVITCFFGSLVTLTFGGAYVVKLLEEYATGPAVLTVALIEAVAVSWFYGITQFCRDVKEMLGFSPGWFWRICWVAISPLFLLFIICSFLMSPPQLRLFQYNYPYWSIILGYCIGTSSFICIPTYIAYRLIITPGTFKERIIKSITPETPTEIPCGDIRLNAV

`NC(N)=NCCNC(=O)c1ccc(OC[C@@H]2CNCC[C@H]2c2ccc(F)cc2)cc1` [Example 8, N-(2-((diaminomethylene)amino)ethyl)-4-(((3S,4R)-4-(4-fluorophenyl)piperidin-3-yl)methoxy)benzamide]: the inhibition at 10 µM in test [1] is greater than 50%. In test [2] (FIG. 1, chronic treatment, versus H2O treated group in the same model), the liquid gastric emptying result is “increases”. The gastric emptying entry in test [2] (setting [3]) and in test [2] (saline (control) mice) was “significantly increased” in each case.
On to `Fc1ccc([C@@H]2CCNC[C@H]2COc2ccc3c(c2)OCO3)cc1` [paroxetine, reference compound], for which the gastric emptying result in test [2] (setting [3]) and in test [2] (saline (control) mice) was “not observed” in each case.
For the compound `O=C(O)c1ccc(OC[C@@H]2CNCC[C@H]2c2ccc(F)cc2)cc1O` [Example 3, 4-(((3S,4R)-4-(4-fluorophenyl)piperidin-3-yl)methoxy)-2-hydroxybenzoic acid hydrochloride], the inhibition at 10 µM in test [1] was greater than 50%.
Still for that read-out and setting: then `O=C(O)COc1ccc(OC[C@@H]2CNCC[C@H]2c2ccc(F)cc2)cc1` [Example 15, 2-(4-(((3S,4R)-4-(4-fluorophenyl)piperidin-3-yl)methoxy)phenoxy)acetic acid hydrochloride], with 20 to 40%.
Consider `O=C(O)c1cccc(OC[C@@H]2CNCC[C@H]2c2ccc(F)cc2)c1` [Example 2, 3-(((3S,4R)-4-(4-fluorophenyl)piperidin-3-yl)methoxy)benzoic acid hydrochloride], for which the inhibition at 10 µM in test [1] was 40 to 50%.
Turning to `NCCOc1ccc(OC[C@@H]2CNCC[C@H]2c2ccc(F)cc2)cc1` [Example 10, 2-(4-(((3S,4R)-4-(4-fluorophenyl)piperidin-3-yl)methoxy)phenoxy)-ethan-1-amine hydrochloride], the inhibition at 10 µM in test [1] lay within 40 to 50%.
On the same count and under the same terms, with `O=C(O)COCCOc1ccc(OC[C@@H]2CNCC[C@H]2c2ccc(F)cc2)cc1` [Example 16, 2-(2-(4-(((3S,4R)-4-(4-fluorophenyl)piperidin-3-yl)methoxy)phenoxy)-ethoxy)acetic acid hydrochloride] the figure was 20 to 40%; with `OCCOc1ccc(OC[C@@H]2CNCC[C@H]2c2ccc(F)cc2)cc1` [Example 13, 2-(4-(((3S,4R)-4-(4-fluorophenyl)piperidin-3-yl)methoxy)phenoxy)ethan-1-ol hydrochloride], greater than 50%; with `NCCNC(=O)c1ccc(OC[C@@H]2CNCC[C@H]2c2ccc(F)cc2)cc1` [Example 5, N-(2-aminoethyl)-4-(((3S,4R)-4-(4-fluorophenyl)piperidin-3-yl)-methoxy)benzamide hydrochloride], greater than 50%.
In the case of `NC(=O)NCCNC(=O)c1ccc(OC[C@@H]2CNCC[C@H]2c2ccc(F)cc2)cc1` [Example 9, 4-(((3S,4R)-4-(4-fluorophenyl)piperidin-3-yl)methoxy)-N-(2-ureidoethyl)benzamide hydrochloride], in test [1], the inhibition at 10 µM was greater than 50%.
For the compound `OCCOCCOc1ccc(OC[C@@H]2CNCC[C@H]2c2ccc(F)cc2)cc1` [Example 14, 2-(2-(4-(((3S,4R)-4-(4-fluorophenyl)piperidin-3-yl)methoxy)phenoxy)ethoxy)ethan-1-ol hydrochloride], the inhibition at 10 µM in test [1] fell in the range of 20 to 40%.
On to `CN(C)CCOc1ccc(OC[C@@H]2CNCC[C@H]2c2ccc(F)cc2)cc1` [Example 11, 2-(4-(((3S,4R)-4-(4-fluorophenyl)piperidin-3-yl)methoxy)phenoxy)-N,N-dimethylethan-1-amine hydrochloride], for which the inhibition at 10 µM in test [1] fell in the range of 40 to 50%.
For the compound `CN(C)CCN(C)C(=O)c1ccc(OC[C@@H]2CNCC[C@H]2c2ccc(F)cc2)cc1` [Example 7, N-(2-(dimethylamino)ethyl)-4-(((3S,4R)-4-(4-fluorophenyl)piperidin-3-yl)methoxy)-N-methylbenzamide hydrochloride], in test [1], the inhibition at 10 µM is greater than 50%.
Regarding `C[N+]1(C)CC[C@@H](c2ccc(F)cc2)[C@H](CCc2ccc3c(c2)OCO3)C1` [Example 17, (3S,4R)-3-(2-(benzo[d][1,3]dioxol-5-yl)ethyl)-4-(4-fluorophenyl)-1,1-dimethylpiperidin-1-ium iodide], the inhibition at 10 µM in test [1] was greater than 50%.
Regarding `CN(C)CCNC(=O)c1ccc(OC[C@@H]2CNCC[C@H]2c2ccc(F)cc2)cc1` [Example 6, N-(2-(dimethylamino)ethyl)-4-(((3S,4R)-4-(4-fluorophenyl)piperidin-3-yl)methoxy)benzamide hydrochloride], in test [1], the inhibition at 10 µM is greater than 50%.
On the same count and under the same terms, then `COc1ccc(OC[C@@H]2CNCC[C@H]2c2ccc(F)cc2)cc1C(=O)O` [Example 4, 5-(((3S,4R)-4-(4-fluorophenyl)piperidin-3-yl)methoxy)-2-methoxybenzoic acid hydrochloride], with greater than 50%; and `O=C(O)c1ccc(OC[C@@H]2CNCC[C@H]2c2ccc(F)cc2)cc1` [Example 1, 4-(((3S,4R)-4-(4-fluorophenyl)piperidin-3-yl)methoxy)benzoic acid hydrochloride], with greater than 50%; and `CN(C)CCCOc1ccc(OC[C@@H]2CNCC[C@H]2c2ccc(F)cc2)cc1` [Example 12, 3-(4-(((3S,4R)-4-(4-fluorophenyl)piperidin-3-yl)methoxy)phenoxy)-N,N-dimethylpropan-1-amine hydrochloride], with greater than 50%.
